Laboratory results: patent publication US12052991B2, “Substituted pyridinyloxybenzenes and salts thereof and use thereof as herbicidal agents” (Bayer Aktiengesellschaft, priority 2018, dated 2024)

Columns and labels:
Assay type in all cases: in vivo
[1] = system: Matricaria inodora (MATIN); assay: Herbicidal pre-emergence action, test D, single sowings (Table D6); conditions: dosage 80 g/ha, scored after about 3 weeks
Excerpt: (§1) Seeds of monocotyledonous and dicotyledonous weed plants were laid out in plastic or organic plant pots (single sowings with one species of mono- or dicotyledonous weed plant per pot) and covered with soil. The compounds of the invention, formulated in the form of wettable powders (WP) or as emulsion concentrates (EC), were then applied to the surface of the covering soil as aqueous suspension or emulsion with addition of 0.5% additive at a water application rate equivalent to 600 l/ha (converted). After the treatment, the pots were placed in a greenhouse and kept under good growth conditions for the test plants. After about 3 weeks, the effect of the preparations was scored visually in comparison with untreated controls as percentages. For example, 100% activity=the plants have died, 0% activity=like control plants. Tables D1 to D8 below show the effects of selected compounds of the general formula (I) according to Table 1 on various harmful plants and an application rate corresponding to 80 g/ha, which were obtained by the experimental procedure mentioned above.

[2] = system: Alopecurus myosuroides (ALOMY); assay: Herbicidal pre-emergence action, test D, single sowings (Table D1); conditions: 80 g/ha; scored visually after about 3 weeks; 100% = plants have died, 0% = like control plants
Excerpt: as §1

[3] = system: harmful plants ALOMY, DIGSA, SETVI, ABUTH, AMARE, MATIN, VIOTR and VERPE; assay: Herbicidal pre-emergence action (test D), summary of Tables D1-D8; conditions: application rate of 80 g of active ingredient per hectare; summary in words
Excerpt: as §1, with “plants.” for “plants. Tables D1 to D8 below show the effects of selected compounds of the general formula (I) according to Table 1 on various harmful plants and an application rate corresponding to 80 g/ha, which were obtained by the experimental procedure mentioned above.”
Tables D1 to D8 below show the effects of selected compounds of the general formula (I) according to Table 1 on various harmful plants and an application rate corresponding to 80 g/ha, which were obtained by the experimental procedure mentioned above.

[4] = system: Alopecurus myosuroides (ALOMY); assay: Herbicidal post-emergence action (Table B9); conditions: rated visually after about 3 weeks, 100% = plants have died, 0% = like control plants
Method in brief: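 Activity was scored visually against untreated plants roughly 3 weeks after treatment, 0% meaning like control and 100% plant death. Application was post-emergence onto green parts at the one-leaf stage, as aqueous suspension/emulsion with 0.5% additive, 600 l/ha, delivering 1280 or 320 g/ha to greenhouse plants in sandy loam.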

[5] = system: Veronica persica (VERPE); assay: Herbicidal pre-emergence action, test C (Table C12); conditions: visual scoring vs untreated controls
Method in brief: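 Application rates of 1280 or 320 g/ha were delivered as WP or EC formulations in water with 0.5% additive, 600 L/ha, onto soil covering freshly sown seeds in sandy loam. Pots stayed under good greenhouse growth conditions, and efficacy was rated as visual percent after about 3 weeks.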

Row | Structure (SMILES) | Pre-emergence action against Matricaria inodora (MATIN) [1] [%] | Pre-emergence action against Alopecurus myosuroides (ALOMY) [2] [%] | herbicidal activity against the harmful plants of Tables D1-D8 in pre-emergence treatment [3] | Post-emergence action against Alopecurus myosuroides (ALOMY) ([4]; 320 g/ha) [%] | Post-emergence action against Alopecurus myosuroides (ALOMY) ([4]; 1280 g/ha) [%] | Pre-emergence action against Veronica persica (VERPE) ([5]; dosage 320 g/ha) [%] | Pre-emergence action against Veronica persica (VERPE) ([5]; dosage 1280 g/ha) [%]
1 | Fc1cccc(Oc2ccc(Cl)cn2)c1-c1cc(C(F)F)no1 [Example 1-17] | 100 | 100 | very good herbicidal activity |  |  |  | 
2 | Cc1cccc(Oc2ccc(Cl)cn2)c1-c1cc(C(F)F)no1 [Example 1-18, 5-[2-[(5-Chloro-2-pyridyl)oxy]-6-methylphenyl]-3-(difluoromethyl)isoxazole] |  |  |  | 100 | 100 | 100 | 100
3 | Fc1cc(Cl)cnc1Oc1cccc(F)c1-c1cc(C(F)F)no1 [Example 1-19] | 100 | 100 | very good herbicidal activity |  |  |  | 
4 | Cc1cccc(Oc2ncc(Cl)cc2F)c1-c1cc(C(F)F)no1 [Example 1-20] |  |  |  | 100 | 100 | 100 | 100
5 | FC(F)c1cc(-c2ccccc2Oc2ccc(Cl)cn2)on1 [Example 1-35] | 80 |  | very good herbicidal activity | 100 | 100 | 100 | 100
6 | Fc1cc(Cl)cnc1Oc1ccccc1-c1cc(C(F)F)no1 [Example 1-36] | 100 |  | very good herbicidal activity | 100 | 100 | 100 | 100
7 | Fc1cccc(Oc2ccc(Br)cn2)c1-c1cc(C(F)F)no1 [Example 1-40] |  |  |  | 100 | 100 | 100 | 100
